In this test the target is human TrkA (Homo sapiens (Human), UniProt P04629). The experiment in a line: Human TrkA inhibition assay (Test Example 2). The class given is biochemical. The method in brief: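 Recombinant TrkA (1 nmol/L) was preincubated 15 min at room temperature with compound in HEPES/MgCl2/DTT buffer, then reacted with FL-peptide 27 (1.5 μmol/L) and ATP (500 μmol/L) for 120 min at 37 °C. After EDTA stop, substrate phosphorylation was read by microfluidic mobility shift. IC50 came from logistic regression over 3-fold dilution series.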
Chain of human TrkA (P04629 440-796): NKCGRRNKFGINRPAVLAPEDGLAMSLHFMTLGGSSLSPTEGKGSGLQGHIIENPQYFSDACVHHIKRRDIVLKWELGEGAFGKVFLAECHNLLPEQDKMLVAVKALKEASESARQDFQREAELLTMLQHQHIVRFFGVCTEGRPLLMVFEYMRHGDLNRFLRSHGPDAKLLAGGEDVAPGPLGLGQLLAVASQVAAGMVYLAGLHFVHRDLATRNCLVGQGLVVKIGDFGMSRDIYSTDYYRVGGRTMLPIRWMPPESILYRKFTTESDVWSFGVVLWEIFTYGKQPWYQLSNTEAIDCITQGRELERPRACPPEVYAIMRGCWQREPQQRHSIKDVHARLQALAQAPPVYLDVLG

[1] abbreviates: Table 153, human TrkA inhibition, read-out: IC50.
[2] abbreviates: human TrkA 1 nmol/L, ATP 500 μmol/L, 120 min at 37° C., read-out: IC50 values (TrkA phosphorylation inhibition).
Setting [3] is: Table 154, human TrkA inhibition, read-out: IC50.

Data on 48 molecules can be found in patent publication US10640495B2, “Heterocycle derivatives having TrkA inhibitory activity” (Shionogi & Co., Ltd., priority 2015, dated 2020).

Read-outs that look alike come from different tables or passages of the source. Bounds are passed on as bounds.

Consider `COCCN1C[C@@H](NC(=O)Nc2c(C)c(-c3cnc4cccnc4c3)nn2-c2ccccc2)[C@H](c2ccc(F)c(F)c2)O1` (racemic) [Compound I-152], for which the IC50 (in general, the concentration needed to halve the response being measured) under setting [1] was under 0.1 µM. For `COCCN1C[C@@H](NC(=O)Nc2c(C)c(C3=CCN(c4ncc(Cl)cn4)CC3)nn2-c2ccccc2)[C@H](c2ccc(F)c(F)c2)O1` (racemic) [Compound I-153], the IC50 under setting [1] was under 0.1 µM. Same read-out and setting: with `COCCN1C[C@@H](NC(=O)Nc2c(C)c(-c3cnc(C)nc3)nn2-c2ccccc2)[C@H](c2cnc(Cl)s2)O1` (racemic) [Compound I-154] the figure was under 0.1 µM. On to `COCCN1C[C@@H](NC(=O)Nc2c(C)c(-c3ccn4c(C)nnc4c3)nn2-c2ccccc2)[C@H](c2ccnc(F)c2)O1` (racemic) [Compound I-155], for which, under setting [1], the IC50 is under 0.1 µM.

In the case of `COCCN1C[C@@H](NC(=O)Nc2c(C)c(-c3ccn4nc(C)nc4c3)nn2-c2ccccc2)[C@H](c2ccnc(F)c2)O1` (racemic) [Compound I-156], the IC50 under setting [1] was under 0.1 µM. Consider `COCCN1C[C@@H](NC(=O)Nc2c(C)c(-c3cnc(OC)nc3)nn2-c2ccccc2)[C@H](c2cnc(Cl)s2)O1` (racemic) [Compound I-157], for which the IC50 under setting [1] is under 0.1 µM. As to `COCCN1C[C@@H](NC(=O)Nc2c(C)c(-c3ccc4nnc(C)n4c3)nn2-c2ccccc2)[C@H](c2ccnc(F)c2)O1` (racemic) [Compound I-158], under setting [1], the IC50 is under 0.1 µM. Regarding `COCCN1C[C@@H](NC(=O)Nc2c(C)c(-c3ccc4nc(C)nn4c3)nn2-c2ccccc2)[C@H](c2ccnc(F)c2)O1` (racemic) [Compound I-159], under setting [2], the IC50 came out at 0.0021 µM. As for `COCCN1C[C@@H](NC(=O)Nc2c(C)c(-c3cnc(C)nc3)nn2-c2ccccc2)[C@H](c2ccccc2)O1` (racemic) [Compound I-160], under setting [1], the IC50 is under 0.1 µM. In the case of `COCCN1C[C@@H](NC(=O)Nc2c(C)c(-c3cnc4c(c3)ncn4C)nn2-c2ccccc2)[C@H](c2ccccc2)O1` (racemic) [Compound I-161], the IC50 under setting [1] was under 0.1 µM. Consider `COCCN1C[C@@H](NC(=O)Nc2c(C)c(-c3cnc4c(c3)nnn4C)nn2-c2ccccc2)[C@H](c2ccccc2)O1` (racemic) [Compound I-162], for which, under setting [1], the IC50 is under 0.1 µM.

As to `CNC(=O)c1cc(-c2nn(-c3ccccc3)c(NC(=O)N[C@@H]3CN(CCOC)O[C@H]3c3ccccc3)c2C)cn(C)c1=O` (racemic) [Compound I-163], the IC50 under setting [1] was under 0.1 µM. As for `COCCN1C[C@@H](NC(=O)Nc2c(C)c(-c3cnc4c(c3)ncn4C)nn2-c2ccccc2)[C@H](c2ccnc(F)c2)O1` (racemic) [Compound I-164], the IC50 under setting [1] is under 0.1 µM. In the case of `COCCN1C[C@@H](NC(=O)Nc2c(C)c(-c3cnc(C(N)=O)c(C)c3)nn2-c2ccccc2)[C@H](c2ccnc(F)c2)O1` (racemic) [Compound I-165], under setting [2], the IC50 was 0.0053 µM.

As to `CNC(=O)c1ncc(-c2nn(-c3ccccc3)c(NC(=O)N[C@@H]3CN(CCOC)O[C@H]3c3ccnc(F)c3)c2C)cc1C` (racemic) [Compound I-166], under setting [2], the IC50 is 0.0048 µM.

On to `CCNC(=O)c1ncc(-c2nn(-c3ccccc3)c(NC(=O)N[C@@H]3CN(CCOC)O[C@H]3c3ccnc(F)c3)c2C)cc1C` (racemic) [Compound I-167], for which the IC50 under setting [1] was under 0.1 µM. Still for that read-out and setting: with `COCCN1C[C@@H](NC(=O)Nc2c(C)c(-c3cnc(C(=O)NCC(F)(F)F)c(C)c3)nn2-c2ccccc2)[C@H](c2ccnc(F)c2)O1` (racemic) [Compound I-168] the figure was under 0.1 µM; with `COCCN1C[C@@H](NC(=O)Nc2c(C)c(-c3cnc(C(=O)NC4CC4)c(C)c3)nn2-c2ccccc2)[C@H](c2ccnc(F)c2)O1` (racemic) [Compound I-169], under 0.1 µM. On the same count and under the same terms, with `COCCN1C[C@@H](NC(=O)Nc2c(C)c(-c3cnc(C(=O)NCC4CC4)c(C)c3)nn2-c2ccccc2)[C@H](c2ccnc(F)c2)O1` (racemic) [Compound I-170] the figure was under 0.1 µM; with `COCCN1C[C@@H](NC(=O)Nc2c(C)c(-c3cnc(C(=O)NC4CCOCC4)c(C)c3)nn2-c2ccccc2)[C@H](c2ccnc(F)c2)O1` (racemic) [Compound I-171], under 0.1 µM; with `COCCNC(=O)c1ncc(-c2nn(-c3ccccc3)c(NC(=O)N[C@@H]3CN(CCOC)O[C@H]3c3ccnc(F)c3)c2C)cc1C` (racemic) [Compound I-173], under 0.1 µM. On the same count and under the same terms, with `COCCN1C[C@@H](NC(=O)Nc2c(C)c(-c3cnc4c(cnn4C)c3)nn2-c2ccc(F)cc2)[C@H](c2ccc(F)c(F)c2)O1` (racemic) [Compound I-174] the figure was under 0.1 µM; with `COCCN1C[C@@H](NC(=O)Nc2c(C)c(-c3cnc4c(cnn4C)c3)nn2-c2ccc(F)c(F)c2)[C@H](c2ccc(F)c(F)c2)O1` (racemic) [Compound I-175], under 0.1 µM; with `COCCN1C[C@@H](NC(=O)Nc2c(C)c(-c3cnc(C)c(N=S(C)(C)=O)c3)nn2-c2ccccc2)[C@H](c2ccc(F)c(F)c2)O1` (racemic) [Compound I-176], under 0.1 µM. As for `CNS(=O)(=O)c1cc(-c2nn(-c3ccccc3)c(NC(=O)N[C@@H]3CN(CCOC)O[C@H]3c3ccc(F)c(F)c3)c2C)cn(C)c1=O` (racemic) [Compound I-177], the IC50 under setting [3] was under 0.1 µM. Still for that read-out and setting: with `CNS(=O)(=O)c1cc(-c2nn(-c3ccccc3)c(NC(=O)N[C@@H]3CN(CCOC)O[C@H]3c3ccnc(F)c3)c2C)cn(C)c1=O` (racemic) [Compound I-178] the figure was under 0.1 µM; with `COCCN1C[C@@H](NC(=O)Nc2c(C)c(-c3cnc(OC)c(C(=O)O)c3)nn2-c2ccccc2)[C@H](c2cnc(F)c(F)c2)O1` (racemic) [Compound I-179], under 0.1 µM; with `CNC(=O)c1cc(-c2nn(-c3ccc(F)c(F)c3)c(NC(=O)N[C@@H]3CN(CCOC)O[C@H]3c3ccc(F)c(F)c3)c2C)cnc1OC` (racemic) [Compound I-181], under 0.1 µM. On the same count and under the same terms, with `COCCN1C[C@@H](NC(=O)Nc2c(C)c(-c3cnc(OC)c(C(=O)NC4CCOCC4)c3)nn2-c2ccc(F)c(F)c2)[C@H](c2ccc(F)c(F)c2)O1` (racemic) [Compound I-182] the figure was under 0.1 µM; with `CNC(=O)c1cc(-c2nn(-c3ccc(F)cc3)c(NC(=O)N[C@@H]3CN(CCOC)O[C@H]3c3ccc(F)c(F)c3)c2C)cnc1OC` (racemic) [Compound I-183], under 0.1 µM; with `COCCN1C[C@@H](NC(=O)Nc2c(C)c(-c3cnc(OC)c(C(=O)NC4CCOCC4)c3)nn2-c2ccc(F)cc2)[C@H](c2ccc(F)c(F)c2)O1` (racemic) [Compound I-184], under 0.1 µM. On the same count and under the same terms, with `COCC[C@@H]1C[C@@H](NC(=O)Nc2c(C)c(-c3ccc(N=S(C)(C)=O)nc3)nn2-c2ccccc2)[C@H](c2ccc(F)c(F)c2)O1` (racemic) [Compound I-185] the figure was under 0.1 µM.

`COCCN1C[C@@H](NC(=O)Nc2c(C)c(-c3cnc(OC)nc3)nn2-c2ccccc2)[C@H](c2cc(F)nc(F)c2)O1` (racemic) [Compound I-187]: the IC50 under setting [3] is under 0.1 µM. Still for that read-out and setting: with `COCCN1C[C@@H](NC(=O)Nc2c(C)c(-c3cnc4cccnc4c3)nn2-c2ccccc2)[C@H](c2ccnc(F)c2)O1` (racemic) [Compound I-188] the figure was under 0.1 µM; with `COCCN1C[C@@H](NC(=O)Nc2c(C)c(-c3ccnc(C(=O)OC)c3)nn2-c2ccccc2)[C@H](c2ccc(F)c(F)c2)O1` (racemic) [Compound I-189], under 0.1 µM. Take `COCCN1C[C@@H](NC(=O)Nc2c(C)c(-c3ccnc(C(=O)O)c3)nn2-c2ccccc2)[C@H](c2ccc(F)c(F)c2)O1` (racemic) [Compound I-190]: under setting [2], the IC50 was 0.0021 µM. In the case of `CNC(=O)c1cc(-c2nn(-c3ccccc3)c(NC(=O)N[C@@H]3CN(C)O[C@H]3c3ccc(F)c(F)c3)c2C)cn(C)c1=O` (racemic) [Compound I-193], the IC50 under setting [2] was determined as 0.004 µM.

For `COCCN1C[C@@H](NC(=O)Nc2c(C)c(-c3ccnc(C(=O)OC)c3)nn2-c2ccccc2)[C@H](c2ccnc(F)c2)O1` (racemic) [Compound I-194], the IC50 under setting [3] was under 0.1 µM. Turning to `COCCN1C[C@@H](NC(=O)Nc2c(C)c(-c3ccnc(C(=O)NO)c3)nn2-c2ccccc2)[C@H](c2ccc(F)c(F)c2)O1` (racemic) [Compound I-195], the IC50 under setting [3] was under 0.1 µM.

In the case of `CCOc1ncc(-c2nn(-c3ccccc3)c(NC(=O)N[C@@H]3CN(CCOC)O[C@H]3c3ccnc(F)c3)c2C)cn1` (racemic) [Compound I-196], the IC50 under setting [3] is under 0.1 µM. Same read-out and setting: with `COCCN1C[C@@H](NC(=O)Nc2c(C)c(-c3ccnc(C(=O)NOC)c3)nn2-c2ccccc2)[C@H](c2ccc(F)c(F)c2)O1` (racemic) [Compound I-198] the figure was under 0.1 µM; with `COCCN1C[C@@H](NC(=O)Nc2c(C)c(-c3ccc(C(=O)OC)nc3)nn2-c2ccccc2)[C@H](c2ccc(F)c(F)c2)O1` (racemic) [Compound I-199], under 0.1 µM; with `CCN1C[C@@H](NC(=O)Nc2c(C)c(-c3cnc4c(cnn4C)c3)nn2-c2ccccc2)[C@H](c2ccc(F)c(F)c2)O1` (racemic) [Compound I-200], under 0.1 µM. Still for that read-out and setting: with `Cc1c(-c2cnc3c(cnn3C)c2)nn(-c2ccccc2)c1NC(=O)N[C@@H]1CN(CC2CC2)O[C@H]1c1ccc(F)c(F)c1` (racemic) [Compound I-201] the figure was under 0.1 µM; with `Cc1c(-c2cnc3c(cnn3C)c2)nn(-c2ccccc2)c1NC(=O)N[C@@H]1CN(CC2COC2)O[C@H]1c1ccc(F)c(F)c1` (racemic) [Compound I-202], 0.1 to 1 µM; with `Cc1c(-c2cnc3c(cnn3C)c2)nn(-c2ccccc2)c1NC(=O)N[C@@H]1CN(Cc2ccn[nH]2)O[C@H]1c1ccc(F)c(F)c1` (racemic) [Compound I-203], 0.1 to 1 µM. For the molecule `Cc1c(-c2cnc3c(cnn3C)c2)nn(-c2ccccc2)c1NC(=O)N[C@@H]1CN(Cc2cn[nH]c2)O[C@H]1c1ccc(F)c(F)c1` (racemic) [Compound I-204], the IC50 under setting [3] was in the range of 0.1 to 1 µM. Still for that read-out and setting: with `Cc1c(-c2cnc3c(cnn3C)c2)nn(-c2ccccc2)c1NC(=O)N[C@@H]1CN(Cc2cnn(C)c2)O[C@H]1c1ccc(F)c(F)c1` (racemic) [Compound I-205] the figure was 0.1 to 1 µM.
